Measured values published in patent publication EP0580459B1, “Substituted Phenylimidazolidins, their use as medicaments and their pharmaceutical compositions containing them” (HOECHST MARION ROUSSEL, priority 1992, dated 1994).

Legend:
[1] = tested on: ornithine décarboxylase rénale; test: Androgen / anti-androgen activity by assay of renal ornithine decarboxylase in castrated mice given testosterone propionate; assay type: in vivo, souris mâles SWISS; settings: with testosterone propionate 3 mg/kg s.c., kidneys 20 hours after treatment, relative to controls given testosterone propionate only; for % d'inhibition de l'ODL Test A: Test A: percutaneous route, 1,5 mg/kg in 10 µl
Procedure: 2) Détermination de l'activité androgène ou anti-androgène des produits de l'invention à l'aide du dosage de l'ornithine décarboxylase.
- Protocole de traitement
20 heures après les traitements, les animaux sont sacrifiés, les reins prélevés, puis homogénéisés à 0°C , à l'aide d'un broyeur téflon-verre dans 10 volumes de tampon Tris-HCl 50 mM (pH 7,4) contenant 250 uM de phosphate de pyridoxal, 0,1 mM EDTA, et 5 mM de dithiothreitol. L'homogenat est ensuite centrifugé à 209000 g pendant 30 mn.
A 37°C, l'ornithine décarboxylase rénale transforme un mélange isotopique d'ornithine froide et d'ornithine tritiée en putrescine froide et putrescine tritiée.
La putrescine est ensuite recueillie sur des papiers sélectifs, échangeurs d'ions. Après séchage, l'excès d'ornithine tritiée et froide non transformée est éliminé, par 3 lavages d'ammoniaque 0,1 M. Les papiers sont séchés, puis la radioactivité est comptée après addition de scintillant Aqualite.
Les résultats sont exprimés en fmoles ([…]) de putrescine tritiée formée/heure/mg de protéines.
Test A : les produits sont administrés par voie percutanée à 1,5 mg/kg sous un volume de 10 µl. Test B : les produits sont administrés par voie orale à 1 mg/kg. Test C : les produits sont administrés par voie orale à 3 mg/kg.

[2] = molecular target: T1, récepteur androgène (Rattus norvegicus, UniProt P15207); test: Relative binding affinity (ARL) for the androgen receptor: displacement of tritiated testosterone in prostate cytosol; set-up: species or system rats mâles Sprague. Dawley EOPS; settings: Incubation 24 hours at 0°C; prostate cytosol of castrated rats; ARL=100 (CH)/(CX), testosterone = 100
T1 construct: Des aliquotes du surnageant obtenu (=cytosol), sont incubées 30 minutes et 24 heures à 0°C; from tissue; host or cells: prostate cytosol of castrated male Sprague-Dawley rats
T1 sequence (P15207 1-902): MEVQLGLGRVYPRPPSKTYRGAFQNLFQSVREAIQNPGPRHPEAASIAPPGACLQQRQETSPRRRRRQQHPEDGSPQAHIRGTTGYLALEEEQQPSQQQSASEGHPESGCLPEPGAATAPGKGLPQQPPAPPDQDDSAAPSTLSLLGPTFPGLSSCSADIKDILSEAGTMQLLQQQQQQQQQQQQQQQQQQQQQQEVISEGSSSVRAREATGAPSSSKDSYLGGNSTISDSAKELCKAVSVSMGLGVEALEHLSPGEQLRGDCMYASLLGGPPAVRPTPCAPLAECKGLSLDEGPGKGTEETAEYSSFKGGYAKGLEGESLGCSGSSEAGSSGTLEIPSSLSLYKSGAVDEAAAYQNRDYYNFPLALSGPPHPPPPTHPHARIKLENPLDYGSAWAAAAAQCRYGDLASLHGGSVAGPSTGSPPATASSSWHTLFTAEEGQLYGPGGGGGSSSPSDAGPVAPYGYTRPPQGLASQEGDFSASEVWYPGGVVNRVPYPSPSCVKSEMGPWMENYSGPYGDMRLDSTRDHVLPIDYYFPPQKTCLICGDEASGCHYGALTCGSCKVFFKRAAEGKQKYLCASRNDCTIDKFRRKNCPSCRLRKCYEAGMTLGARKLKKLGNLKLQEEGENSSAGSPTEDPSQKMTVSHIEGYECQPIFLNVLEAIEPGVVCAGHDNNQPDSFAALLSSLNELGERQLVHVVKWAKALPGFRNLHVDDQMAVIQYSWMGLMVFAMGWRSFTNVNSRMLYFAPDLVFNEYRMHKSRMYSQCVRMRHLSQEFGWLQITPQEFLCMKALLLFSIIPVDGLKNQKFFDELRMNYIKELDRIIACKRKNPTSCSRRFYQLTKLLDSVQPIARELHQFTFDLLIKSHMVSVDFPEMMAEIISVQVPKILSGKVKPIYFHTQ
Procedure: 1) Etude de l'affinité des produits de l'invention pour le récepteur androgène
Des rats mâles Sprague. Dawley EOPS de 180-200 g, castrés de 24 heures, sont sacrifiés, les prostates prélevées, pesées et homogénéisées à 0°C à l'aide d'un potter verre-verre, dans une solution tamponnée (Tris lOmM, saccharose 0,25M, PMSF (phénylméthanesulfonylfluoride) 0,1mM, Molybdate de sodium 20mM, HCl pH 7,4; auxquels on ajoute extemporanément 2mM de DTT (DL dithiothreitol), à raison de 1 g de tissu pour 8 ml de tampon.
L'homogénat est ensuite ultracentrifugé à 0°C, 30 minutes à 209 000 g.
Calcul de l'affinité relative de liaison (ARL).
On trace les 2 courbes suivantes : le pourcentage de l'hormone tritiée liée B/T en fonction du logarithme de la concentration de l'hormone de référence froide et B/T en fonction du logarithme de la concentration du produit froid testé. On détermine la droite d'équation I50=(B/Tmax + B/Tmin)/2. B/T max= % de l'hormone tritiée liée pour une incubation de cette hormone tritiée à la concentration (T). B/T min= % de l'hormone tritiée liée pour une incubation de cette hormone tritiée à la concentration (T) en présence d'un grand excès d'hormone froide (2500.10^-9M) .
Les intersections de la droite I50 et des courbes, permettent d'évaluer les concentrations de l'hormone de référence froide (CH) et du produit froid testé (CX) qui inhibent de 50 % la liaison de l'hormone tritiée sur le récepteur.

| SMILES | % d'inhibition de l'ODL Test A [1] | % d'inhibition de l'ODL Test B ([1]; Test B: oral route, 1 mg/kg) | ARL (affinité relative de liaison) [2] | % d'inhibition de l'ODL Test C ([1]; Test C: oral route, 3 mg/kg) |
| --- | --- | --- | --- | --- |
| CC1(C)C(=O)N(c2ccc(C#N)c(C(F)(F)F)c2)C(=O)N1CCCCO [Exemple 1, 4-(4,4-diméthyl 2,5-dioxo 3-(4-hydroxybutyl) 1-imidazolidinyl) 2-(trifluorométhyl) benzonitrile] | 40% | 36% | 31 | – |
| CC1(C)C(=O)N(c2ccc(C#N)c(C(F)(F)F)c2)C(=S)N1CCO [Exemple 2, 4-(4,4-diméthyl 3-(2-hydroxyéthyl) 5-oxo 2-thioxo 1-imidazolidinyl) 2-(trifluorométhyl) benzonitrile] | 32% | – | 163 | 67% |
| CC1(C)C(=O)N(c2ccc(C#N)c(C(F)(F)F)c2)C(=S)N1CCCO [Exemple 3, 4-(4,4-diméthyl 3-(3-hydroxypropyl) 5-oxo 2-thioxo 1-imidazolidinyl) 2-(trifluorométhyl) benzonitrile] | 41% | – | – | – |
| CC1(C)C(=O)N(c2ccc(C#N)c(C(F)(F)F)c2)C(=S)N1CCCCO [Exemple 4, 4-(4,4-diméthyl 3-(4-hydroxybutyl) 5-oxo 2-thioxo 1-imidazolidinyl) 2-(trifluorométhyl) benzonitrile] | 78% | – | 300 | – |
| COCCN1C(=S)N(c2ccc(C#N)c(C(F)(F)F)c2)C(=O)C1(C)C [Exemple 5, 4-(4,4-diméthyl 3-(2-méthoxyéthyl) 5-oxo 2-thioxo 1-imidazolidinyl) 2-(trifluorométhyl) benzonitrile] | 62% | – | 81 | – |
| CC(C)N1C(=S)N(c2ccc(C#N)c(C(F)(F)F)c2)C(=O)C1(C)C [Exemple 6, 4-(4,4-diméthyl 3-(1-méthyléthyl) 5-oxo 2-thioxo 1-imidazolidinyl) 2-(trifluorométhyl) benzonitrile] | 35% | – | 28 | – |
